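Interpolation was linear, between the two tested concentrations surrounding the appropriate level; five concentrations were tested over 48 hours in 96-well plates. Here, GI50 denotes the concentration required for 50% inhibition of growth.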 Calls of active or inactive are those of the source. Cut-off read from the data, not from the text of the source: active = GI50 up to about 1.1 µM and inactive = higher.
Experiments:
Test in all cases: NCI anticancer screen, dose series, 48 h
786-0 = system: 786-0
A498 = system: A498
A549 = system: A549
ACHN = system: ACHN
BT-549 = system: BT-549
CAKI-1 = system: CAKI-1
CCRF-CEM = system: CCRF-CEM
COLO 205 = system: COLO 205
DU-145 = system: DU-145
EKVX = system: EKVX
HCT-116 = system: HCT-116
HCT-15 = system: HCT-15
HL-60 = system: HL-60
HOP-62 = system: HOP-62
HOP-92 = system: HOP-92
HT-29 = system: HT-29
Hs-578T = system: Hs-578T
IGROV-1 = system: IGROV-1
K562 = system: K562
KM12 = system: KM12
LOX IMVI = system: LOX IMVI
M14 = system: M14
MCF7 = system: MCF7
MDA-MB-231 = system: MDA-MB-231
MDA-MB-435 = system: MDA-MB-435
MOLT-4 = system: MOLT-4
NCI-H23 = system: NCI-H23
NCI-H460 = system: NCI-H460
NCI-H522 = system: NCI-H522
NCI/ADR-RES = system: NCI/ADR-RES
OVCAR-3 = system: OVCAR-3
OVCAR-4 = system: OVCAR-4
OVCAR-5 = system: OVCAR-5
OVCAR-8 = system: OVCAR-8
PC-3 = system: PC-3
RPMI-8226 = system: RPMI-8226
SF-268 = system: SF-268
SF-295 = system: SF-295
SF-539 = system: SF-539
SK-MEL-2 = system: SK-MEL-2
SK-MEL-5 = system: SK-MEL-5
SK-OV-3 = system: SK-OV-3
SN12C = system: SN12C
SNB-19 = system: SNB-19
SNB-75 = system: SNB-75
SR = system: SR
SW-620 = system: SW-620
T47D = system: T47D
TK-10 = system: TK-10
U-251 = system: U-251
UACC-257 = system: UACC-257
UACC-62 = system: UACC-62
UO-31 = system: UO-31
Malme-3M = system: Malme-3M
NCI-H226 = system: NCI-H226
RXF 393 = system: RXF 393
SK-MEL-28 = system: SK-MEL-28

For `OC[C@H]1O[C@@H]2O[C@@](COCc3ccccc3)([C@H](OCc3ccccc3)[C@H]2O)[C@@H]1OCc1ccccc1`, the GI50 (786-0) was 17 µM (inactive), the GI50 (A498) was 18.1 µM (inactive) and the GI50 (A549) was 14.7 µM (inactive). For the same compound, the GI50 (ACHN) was 17.3 µM (inactive), the GI50 (BT-549) was 22.2 µM (inactive) and the GI50 (CAKI-1) was 15.7 µM (inactive). For the same compound, the GI50 (CCRF-CEM) was 13.4 µM (inactive), the GI50 (COLO 205) was 17.4 µM (inactive) and the GI50 (DU-145) was 16.5 µM (inactive). For the same compound, the GI50 (EKVX) was 14.1 µM (inactive), the GI50 (HCT-116) was 16.5 µM (inactive) and the GI50 (HCT-15) was 18.8 µM. The GI50 (HL-60) was 18.2 µM (inactive), the GI50 (HOP-62) was 18.1 µM (inactive) and the GI50 (HOP-92) was 11.9 µM (inactive). For the same compound, the GI50 (HT-29) was 4.81 µM (inactive), the GI50 (Hs-578T) was 7.4 µM (inactive) and the GI50 (IGROV-1) was 13.9 µM (inactive). The GI50 (K562) was 7.76 µM (inactive), the GI50 (KM12) was 16.7 µM (inactive) and the GI50 (LOX IMVI) was 16.7 µM (inactive). The GI50 (M14) was 17.6 µM (inactive), the GI50 (MCF7) was 20.6 µM (inactive) and the GI50 (MDA-MB-231) was 15.3 µM (inactive). For the same compound, the GI50 (MDA-MB-435) was 17.3 µM (inactive), the GI50 (MOLT-4) was 4.98 µM (inactive) and the GI50 (NCI-H23) was 16.6 µM (inactive). The GI50 (NCI-H460) was 17 µM (inactive), the GI50 (NCI-H522) was 17.3 µM (inactive) and the GI50 (NCI/ADR-RES) was 17.2 µM (inactive). For the same compound, the GI50 (OVCAR-3) was 14.6 µM (inactive), the GI50 (OVCAR-4) was 2.99 µM (inactive) and the GI50 (OVCAR-5) was 17.1 µM (inactive). The GI50 (OVCAR-8) was 14.6 µM (inactive), the GI50 (PC-3) was 14.2 µM (inactive) and the GI50 (RPMI-8226) was 13.7 µM (inactive). The GI50 (SF-268) was 18.1 µM (inactive), the GI50 (SF-295) was 15.3 µM (inactive) and the GI50 (SF-539) was 17.5 µM (inactive). For the same compound, the GI50 (SK-MEL-2) was 16.3 µM (inactive), the GI50 (SK-MEL-5) was 15.3 µM (inactive) and the GI50 (SK-OV-3) was 14.8 µM (inactive). The GI50 (SN12C) was 15.7 µM (inactive), the GI50 (SNB-19) was 17.6 µM (inactive) and the GI50 (SNB-75) was 16.2 µM (inactive). The GI50 (SR) was 2.33 µM (inactive), the GI50 (SW-620) was 20.2 µM (inactive) and the GI50 (T47D) was 14.8 µM (inactive). For the same compound, the GI50 (TK-10) was 18.6 µM (inactive), the GI50 (U-251) was 15.7 µM (inactive) and the GI50 (UACC-257) was 17.5 µM (inactive). For the same compound, the GI50 (UACC-62) was 14.4 µM (inactive) and the GI50 (UO-31) was 15.6 µM (inactive).
For `COc1cc2c(/C=C3/C(=O)Nc4cc(C)c(O)cc43)c(Cl)[nH]c2cc1C`, the GI50 (786-0) was 2.59 µM (inactive), the GI50 (A498) was 13.9 µM (inactive) and the GI50 (A549) was 4.01 µM (inactive). The GI50 (ACHN) was 4.37 µM (inactive), the GI50 (BT-549) was 6.75 µM (inactive) and the GI50 (CAKI-1) was 2.55 µM (inactive). For the same compound, the GI50 (CCRF-CEM) was 0.552 µM (active), the GI50 (COLO 205) was 2.03 µM (inactive) and the GI50 (DU-145) was 2.75 µM (inactive). The GI50 (HCT-116) was 2.64 µM (inactive), the GI50 (HCT-15) was 3.33 µM and the GI50 (HL-60) was 1.86 µM (inactive). For the same compound, the GI50 (HOP-62) was 2 µM (inactive), the GI50 (HOP-92) was 23 µM (inactive) and the GI50 (HT-29) was 2.33 µM (inactive). For the same compound, the GI50 (Hs-578T) was 2.13 µM (inactive), the GI50 (IGROV-1) was 4.06 µM (inactive) and the GI50 (K562) was 0.815 µM (active). The GI50 (KM12) was 1.85 µM (inactive), the GI50 (LOX IMVI) was 5.61 µM (inactive) and the GI50 (M14) was 1.86 µM (inactive). The GI50 (MCF7) was 1.8 µM (inactive), the GI50 (MDA-MB-231) was 2.59 µM (inactive) and the GI50 (MDA-MB-435) was 0.368 µM (active). For the same compound, the GI50 (MOLT-4) was 0.148 µM (active), the GI50 (Malme-3M) was 0.407 µM (active) and the GI50 (NCI-H226) was 5.69 µM (inactive). The GI50 (NCI-H23) was 1.26 µM (inactive), the GI50 (NCI-H460) was 2.51 µM (inactive) and the GI50 (NCI-H522) was 2.98 µM (inactive). For the same compound, the GI50 (NCI/ADR-RES) was 2.88 µM (inactive), the GI50 (OVCAR-3) was 1.06 µM (active) and the GI50 (OVCAR-4) was 4.31 µM (inactive). The GI50 (OVCAR-5) was 4.33 µM (inactive), the GI50 (OVCAR-8) was 3.69 µM (inactive) and the GI50 (PC-3) was 3.18 µM (inactive). The GI50 (RPMI-8226) was 1.75 µM (inactive), the GI50 (RXF 393) was 1.66 µM (inactive) and the GI50 (SF-268) was 6.12 µM (inactive). The GI50 (SF-295) was 1.52 µM (inactive), the GI50 (SF-539) was 2.2 µM (inactive) and the GI50 (SK-MEL-28) was 4.91 µM (inactive). For the same compound, the GI50 (SK-MEL-2) was 4.98 µM (inactive), the GI50 (SK-MEL-5) was 2.31 µM (inactive) and the GI50 (SK-OV-3) was 2.1 µM (inactive). For the same compound, the GI50 (SN12C) was 2.4 µM (inactive), the GI50 (SNB-19) was 2.82 µM (inactive) and the GI50 (SNB-75) was 2.05 µM (inactive). The GI50 (SR) was 0.376 µM (active), the GI50 (SW-620) was 2.83 µM (inactive) and the GI50 (T47D) was 3.16 µM (inactive). For the same compound, the GI50 (TK-10) was 1.9 µM (inactive), the GI50 (U-251) was 3.9 µM (inactive) and the GI50 (UACC-257) was 6.18 µM (inactive). For the same compound, the GI50 (UACC-62) was 1.96 µM (inactive) and the GI50 (UO-31) was 4.31 µM (inactive).
